Results taken from PMC11638627 (Current Research in Microbial Sciences, 2024).

Tested on: chitin deacetylase (CDA)
Assay: p-nitroaniline release, absorbance at […] nm
Format: biochemical, Aneurinibacillus aneurinilyticus
Conditions: 50 mM phosphate buffer pH 7.4, 37 °C; partially purified enzyme with two bands

Km: 98.5 µM
Structure (SMILES): CC(=O)Nc1ccc([N+](=O)[O-])cc1 [p-nitroacetanilide]
